Results taken from doi:10.1101/307710v1, “Assignment of the resting state of the secondary active transporter BetP by integrating spectroscopic measurements and molecular simulations” (biorxiv, 2018).

Molecular target: T1, BetP (Corynebacterium glutamicum, UniProt P54582)
T1 construct: plasmid pASK-IBA5betP, Strep-Tactin purified from E. coli DH5alpha-T1, reconstituted in E. coli polar lipid liposomes; homotrimer
T1 sequence (P54582 1-595): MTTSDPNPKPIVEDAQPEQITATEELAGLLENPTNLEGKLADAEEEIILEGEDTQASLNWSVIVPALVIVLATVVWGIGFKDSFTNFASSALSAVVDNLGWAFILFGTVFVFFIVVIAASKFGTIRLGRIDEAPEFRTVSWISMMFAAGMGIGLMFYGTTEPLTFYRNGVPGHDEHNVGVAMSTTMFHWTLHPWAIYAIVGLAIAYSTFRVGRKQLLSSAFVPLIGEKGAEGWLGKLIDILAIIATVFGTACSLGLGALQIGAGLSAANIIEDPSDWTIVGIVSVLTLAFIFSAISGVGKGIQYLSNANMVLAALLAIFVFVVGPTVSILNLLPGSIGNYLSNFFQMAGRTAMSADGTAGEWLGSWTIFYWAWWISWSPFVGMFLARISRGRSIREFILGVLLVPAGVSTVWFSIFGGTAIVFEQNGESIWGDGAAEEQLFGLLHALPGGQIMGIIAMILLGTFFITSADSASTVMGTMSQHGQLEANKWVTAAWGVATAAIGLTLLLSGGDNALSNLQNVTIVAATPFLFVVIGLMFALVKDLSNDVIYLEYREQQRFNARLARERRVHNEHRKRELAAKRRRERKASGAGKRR
Assay: […]-betaine uptake into proteoliposomes
Format: biochemical
Details: labelled compound; 50 uM betaine, 25 mM NaCl, pH 7.5, 0.6 osmol/kg, valinomycin

In the case of `C[N+](C)(C)CC(=O)[O-]` [betaine], the “[14C]-betaine uptake into proteoliposomes” value is reported as “the activity of G450R5/S516R5 is only slightly decreased compared to the wildtype”.
